Data set [1] concerns modified bombyx hormone receptor (VbR). In kind it is cell-based, bombyx mori. On the procedure:
(§1) Transient transfection experiments in CV-1 cells or 293 cells using modified drosophila ecdysone receptor (VdEcR) or modified bombyx hormone receptor (VbR) with or without dimer partners as described. Luc activity is examined 40 hours after transfection and stimulation with ligand (FIG. 2A). Both receptors are assayed in CV-1 cells with 1 μM MurA and no exogenous dimer partner. […] Both receptors are also assayed in the presence of 5 μg/ml tebufenozide (FIG. 2B). […] Both receptors are also assayed with and without dimer partners. VbR was stimulated with 5 μg/ml tebufenozide and VdEcR was stimulated with 1 μM MurA. […] VbR, with no exogenous dimer partner, has an extremely low base-line which is stimulated 200-300 fold by ligand. Note also from this experiment that VdEcR tends to have a much higher baseline than VbR without dimer partner.
(§2) Tebufenozide is administered to cells co-transfected with nucleic acids encoding receptors: LINX (which encodes the tet-transactivator (TTA)), VbR, TTMT (which encodes the TTA-VbR fusion protein, and TTMT-2V which is like TTMT, but with two VP16 t-domains), to assay for EcRELuc activity (FIG. 2C). Note that teb stimulates VbR, and the TTMT fusions, but has no action on TTA (LINX). The same experiment as that described for 2C, only with a TetO-Luc reporter which responds only to TTA or fusion proteins is summarized in FIG. 2D. […] Note that in this experiment, TTMT and TTMT-2V work better than TTA only (LINX) to stimulate the TetO-luc promoter/reporter. […] An experiment on CV-1 cells transfected with TTMT and two reporters: 6TetO-luc and 4-EcRE-bgalactosidase show both promoters could be simultaneously influenced by the presence or absence of both ligands (FIG. 2E).
Transient transfections are performed by calcium-phosphate coprecipitation employing standard methods (see Sambrook et al., in Molecular Cloning: A Laboratory Manual. Cold Spring Harbor Press, New York, N.Y. (1989)). All tissue culture experiments are performed using DMEM 10% FBS in a 10% CO2 incubator unless otherwise specified. All transfections are performed in triplicate in 24-well Costar plates using CV-1 cells at an approximately 5×10^4 plating density. Immediately following transfection, 1 μm ligand in 20% EtOH/PBS is added to wells. After 40 additional hours of incubation, cells are harvested and luciferase activity measured in an analytical bioluminescence photometer. Cell extracts are simultaneously examined for LacZ activity of the internal control by standard methods. Bar graph levels represent relative luciferase activity after correction using internal control values.

Data set [2] relates to modified drosophila ecdysone receptor (VdEcR). In kind it is cell-based. As to the method:
as §1
(§3) Transient transfections are performed by calcium-phosphate coprecipitation employing standard methods (see Sambrook et al., in Molecular Cloning: A Laboratory Manual. Cold Spring Harbor Press, New York, N.Y. (1989)). All tissue culture experiments are performed using DMEM 10% FBS in a 10% CO2 incubator unless otherwise specified. […] After 40 additional hours of incubation, cells are harvested and luciferase activity measured in an analytical bioluminescence photometer. […]

For a further data set, the system named is VbR. As to the kind of experiment: Transgene regulation in stably infected rat fibroblasts (MARSHA reporter, VbR retroviral vector). In kind it is cell-based, bombyx mori. The conditions noted are these: 0.25 μg/ml teb vs higher levels; VbR-luc clonal fibroblast line and VbR-GH clonal line, FIG. 3; listed as teb.
A further data set deals with T1, tet-transactivator (TTA) (Escherichia coli, UniProt P04483).
T1 construct: expressed in transfected cells; host or cells: CV-1 cells
As to the kind of experiment: EcRE-Luc reporter co-transfected with LINX. The conditions noted are these: FIG. 2C. In kind it is cell-based. On the procedure:
as §2, §3

Data set [3] has as its system TTMT-2V (TTMT with two VP16 t-domains). As to the kind of experiment: EcRE-Luc reporter co-transfected with TTMT-2V. It counts as cell-based. The conditions noted are these: FIG. 2C. On the procedure: as §2, §3
The subject of data set [4] is mammals and other non-insect species. The note with it: extensive testing in animal hosts; previously reported; cited from earlier work.
Data set [5] deals with TTMT (TTA-VbR fusion protein). As to the kind of experiment: EcRE-Luc reporter co-transfected with TTMT. In kind it is cell-based. The conditions noted are these: FIG. 2C. On the procedure:
as §2, §3

“Also recorded” adds a separate entry of the source. Where two headings read alike, the source gives them in different places.

Results on two compounds are retold here after patent US6875569B2, “Modified lepidopteran receptors and hybrid multifunctional proteins for use in transcription and regulation of transgene expression” (The Salk Institute for Biological Studies, priority 1997, dated 2005).

T1 sequence (P04483 whole entry, added parts left off): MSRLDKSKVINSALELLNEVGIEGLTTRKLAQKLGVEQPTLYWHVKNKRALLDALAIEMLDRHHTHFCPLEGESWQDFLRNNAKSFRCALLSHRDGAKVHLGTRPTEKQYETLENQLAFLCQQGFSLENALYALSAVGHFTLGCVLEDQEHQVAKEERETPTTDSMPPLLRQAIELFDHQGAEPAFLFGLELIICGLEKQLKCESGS

As for `CC(C)CC[C@@H](O)[C@](C)(O)[C@H]1CC[C@@]2(O)C3=CC(=O)[C@]4(O)C[C@@H](O)[C@@H](O)C[C@]4(C)[C@H]3[C@H](O)C[C@]12C` [MurA, muristerone A], the “stimulation of VbR, side-by side comparison” value in data set [1] (1 μM MurA) is on record as “effective at stimulating VbR”. Also, in data set [1] (CV-1 cells, 1 μM MurA, no exogenous dimer partner), the “response of bR (Luc activity)” value is “responds”. In addition, the “dimer partner requirement for VdEcR stimulation” value in data set [2] (1 μM MurA, with and without dimer partners) was “RXR and Usp are necessary for VdEcR”.

Take `CCc1ccc(C(=O)NN(C(=O)c2cc(C)cc(C)c2)C(C)(C)C)cc1` [tebufenozide]: the “stimulation of VbR, side-by side comparison” value in data set [1] (2.5 μg/ml teb) was “effective at stimulating VbR”. Moreover, the “stimulation of VbR over base-line by ligand” value in data set [1] (5 μg/ml tebufenozide, VbR with no exogenous dimer partner, experiment with and without dimer partners) is reported as 200-300 fold. For the same compound, the “effect of ligand on VbR in the presence of exogenous dimer partner” value in data set [1] (5 μg/ml tebufenozide, exogenous dimer partner (RXR, Usp) present, VbR constitutively activated) is on record as “inhibited by ligand addition”. The “induction of Luc activity by VbR” value in data set [1] (5 μg/ml tebufenozide, no exogenous dimer partner, 40 hours after transfection) was “greater than 200 fold”. Besides, the “EcRE-Luc activity with VbR” value in data set [1] (EcRE-Luc reporter, FIG. 2C) is listed as “stimulates”. Also, in the data set with VbR, the “stimulation of full transgene activity, dose comparison” value is on record as “as effective at stimulating full activity as higher levels; also recorded: as effective as higher levels for stimulating full activity”. Also, the “EcRE-Luc activity with TTA (LINX)” value on tet-transactivator (TTA) is given as “no action”. Further, the “EcRE-Luc activity with TTMT-2V” value in data set [3] was “stimulates”. In data set [2] (5 μg/ml tebufenozide), the “response of drosophila EcR (Luc activity)” value is “does not respond at all, and in fact, decreases slightly; also recorded: responds weakly, if at all”. Also, the toxicity to mammals result in data set [4] was “very low toxicity”. In addition, the “EcRE-Luc activity with TTMT” value in data set [5] was “stimulates”.
